Series [1] deals with T1, Nuclear factor erythroid 2-related factor 2 (Homo sapiens, UniProt Q16236).
T1 sequence (Q16236 whole entry): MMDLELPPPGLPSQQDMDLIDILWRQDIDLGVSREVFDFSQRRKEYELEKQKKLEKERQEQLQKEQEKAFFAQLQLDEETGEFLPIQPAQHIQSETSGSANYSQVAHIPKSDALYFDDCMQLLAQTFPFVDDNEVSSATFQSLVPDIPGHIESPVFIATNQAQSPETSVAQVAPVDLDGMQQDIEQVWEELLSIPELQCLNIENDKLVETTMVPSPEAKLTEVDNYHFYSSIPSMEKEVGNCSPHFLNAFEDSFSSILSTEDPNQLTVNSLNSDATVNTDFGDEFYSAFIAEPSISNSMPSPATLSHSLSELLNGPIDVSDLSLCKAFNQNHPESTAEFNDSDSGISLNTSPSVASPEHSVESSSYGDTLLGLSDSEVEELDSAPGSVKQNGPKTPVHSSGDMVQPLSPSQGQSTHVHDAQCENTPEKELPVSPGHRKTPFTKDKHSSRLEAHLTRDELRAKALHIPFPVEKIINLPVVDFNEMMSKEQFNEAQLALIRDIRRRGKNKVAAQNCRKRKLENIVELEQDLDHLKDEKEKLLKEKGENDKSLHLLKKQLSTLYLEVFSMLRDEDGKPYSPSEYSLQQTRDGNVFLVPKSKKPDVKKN
Put plainly: Activation of Nrf2 in human U2OS cells co-expressing Keap1 assessed as induction of Nrf2 nuclear translocation incubated for 6 hrs by PathHunter chemiluminescence based analysis. In kind it is cell-based.

Series [2] in a line: Metabolic stability of the compound in human liver microsomes assessed as parent compound remaining measured after 30 mins. In kind it is ADME, Microsome. As to conditions: read-out: Stability. Background: Microsomes from liver hold many membrane-bound enzymes, among them those of drug oxidation.
Series [3] can be described thus: Metabolic stability of the compound in rat plasma assessed as parent compound remaining measured after 30 mins. In kind it is ADME, cell-free. As to conditions: read-out: Stability.
Series [4] deals with BV-2. Briefly: Cytotoxicity against mouse BV-2 cells assessed as effect on cell viability upto 3 uM incubated for 24 hrs by WST assay. The class given is toxicity, cell-based. As to conditions: bv-2, 24 h.
In series [5] the target is T2, Nuclear factor erythroid 2-related factor 2 (Mus musculus) (UniProt Q60795).
T2 sequence (whole entry): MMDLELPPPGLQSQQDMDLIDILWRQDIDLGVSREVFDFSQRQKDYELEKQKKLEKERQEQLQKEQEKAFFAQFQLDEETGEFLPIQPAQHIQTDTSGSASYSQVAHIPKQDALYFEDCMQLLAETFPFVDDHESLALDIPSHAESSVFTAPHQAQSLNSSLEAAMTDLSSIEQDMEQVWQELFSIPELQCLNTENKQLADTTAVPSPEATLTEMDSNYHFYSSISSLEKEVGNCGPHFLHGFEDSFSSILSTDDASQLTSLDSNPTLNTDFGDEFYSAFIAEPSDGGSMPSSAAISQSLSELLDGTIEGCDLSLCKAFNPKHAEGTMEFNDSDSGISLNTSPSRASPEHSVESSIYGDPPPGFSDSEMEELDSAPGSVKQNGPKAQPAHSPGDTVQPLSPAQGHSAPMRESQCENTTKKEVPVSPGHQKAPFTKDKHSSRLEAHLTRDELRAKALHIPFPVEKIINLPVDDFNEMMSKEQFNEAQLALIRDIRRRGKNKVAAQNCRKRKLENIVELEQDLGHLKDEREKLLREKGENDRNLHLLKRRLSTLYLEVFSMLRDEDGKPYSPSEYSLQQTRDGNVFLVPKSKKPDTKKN
Briefly: Activation of Nrf2 in mouse BV-2 cells assessed as increase in Nrf2 level in whole cell lysates at 3 uM measured after 3 hrs by immunoblot analysis. The class given is subcellular. The note with it: filed as activator. (In general: A western blot detects proteins with antibodies after separation by electrophoresis.)

For series [6], the target named is T2, Nuclear factor erythroid 2-related factor 2 (Mus musculus). Put plainly: Activation of Nrf2 in mouse BV-2 cells assessed as increase in Nrf2 nuclear translocation measured after 3 hrs by immunoblot analysis. The class given is subcellular. As to conditions: Nucleus, filed as activator, dose 0.01-3 µM.
The target is the same in series [7]. Put plainly: Activation of Nrf2 in mouse BV-2 cells assessed as increase in HO-1 protein expression at 3 uM measured after 24 hrs by immunoblot analysis. In kind it is cell-based. The note with it: filed as activator.
The target is the same in series [8]. Put plainly: Activation of Nrf2 in mouse BV-2 cells assessed as increase in GCLM protein expression at 3 uM measured after 48 hrs by immunoblot analysis. The class given is cell-based. The note with it: filed as activator.
Series [9] shares this target. Put plainly: Activation of Nrf2 in mouse BV-2 cells assessed as increase in HO-1 protein expression measured after 9 hrs by immunoblot analysis. In kind it is cell-based. As to conditions: filed as activator, dose 0.01-3 µM.
For series [10], the system named is BV-2. Put plainly: Antiinflammatory activity against LPS-induced mouse BV-2 cells assessed as inhibition of NO production at 0.001 to 1 uM pretreated for 6 hrs followed by LPS stimulation for 24 hrs by Griess assay. As to conditions: dose 0.001-1 µM, time 30.0 hrs. In kind it is functional, cell-based. In general terms: Nitrite, measured by Griess reagent, commonly stands in for NO production.

In series [11] the test system is BV-2. Briefly: Antiinflammatory activity against LPS-induced mouse BV-2 cells assessed as inhibition of iNOS protein expression pretreated for 6 hrs followed by LPS stimulation for 24 hrs by immunoblot analysis. The class given is functional, cell-based. The note with it: dose 0.001-1 µM, time 30.0 hrs.
Series [12] concerns BV-2. Briefly: Antiinflammatory activity against LPS-induced mouse BV-2 cells assessed as inhibition of IL-1 beta mRNA expression at 0.1 to 3 uM pretreated for 6 hrs followed by LPS stimulation for 6 hrs by qRT-PCR analysis. In kind it is functional, cell-based. As to conditions: dose 0.1-3 µM, time 12.0 hrs.
Series [13] deals with BV-2. Briefly: Antiinflammatory activity against LPS-induced mouse BV-2 cells assessed as inhibition of TNF-alpha production at 0.1 to 3 uM pretreated for 6 hrs followed by LPS stimulation for 24 hrs by ELISA. The class given is functional, cell-based. The note with it: dose 0.1-3 µM, time 30.0 hrs.
For series [14], the system named is Mus musculus. Briefly: Cognitive enhancing activity against LPS-induced neuroinflammation C57BL/6N mouse model assessed as […] memory improvement by measuring delayed step-through latency at 20 mg/kg/day, po administered for 3 days followed by LPS administration for 7 days by passive avoidance test. The class given is functional, organism-based. The note with it: time 10.0 day.

The subject of series [15] is Mus musculus. Briefly: Antiinflammatory activity against LPS-induced neuroinflammation C57BL/6N mouse model assessed as reduction of glial cell reactivity by measuring reduction in GFAP expression in hippocampus CA1 region at 20 mg/kg/day, po administered for 3 days followed by LPS administration for 7 days by immunofluorescence staining based analysis. In kind it is functional, organism-based. As to conditions: time 10.0 day.

Series [16] relates to Mus musculus. Briefly: Antiinflammatory activity against LPS-induced neuroinflammation C57BL/6N mouse model assessed as reduction of glial cell reactivity by measuring reduction in GFAP expression in hippocampus CA3 region at 20 mg/kg/day, po administered for 3 days followed by LPS administration for 7 days by immunofluorescence staining based analysis. The note with it: time 10.0 day. In kind it is functional, organism-based.

The test system of series [17] is Mus musculus. Put plainly: Antiinflammatory activity against LPS-induced neuroinflammation C57BL/6N mouse model assessed as reduction of glial cell reactivity by measuring reduction in GFAP expression in dentate gyrus at 20 mg/kg/day, po administered for 3 days followed by LPS administration for 7 days by immunofluorescence staining based analysis. The class given is functional, organism-based. As to conditions: time 10.0 day.

Series [18] concerns Mus musculus. Put plainly: Antiinflammatory activity against LPS-induced neuroinflammation C57BL/6N mouse model assessed as reduction of glial cell reactivity by measuring reduction in IBA1 expression in cortex at 20 mg/kg/day, po administered for 3 days followed by LPS administration for 7 days by immunofluorescence staining based analysis. As to conditions: time 10.0 day. The class given is functional, organism-based.

Series [19] has as its system Mus musculus. Put plainly: Antiinflammatory activity against LPS-induced neuroinflammation C57BL/6N mouse model assessed as inhibition of IL-6 production in plasma at 20 mg/kg/day, po administered for 3 days followed by LPS administration for 7 days by ELISA. The class given is functional, organism-based. As to conditions: time 10.0 day.

Each structure is given as a SMILES string. Active and inactive are the calls of the source. No cut-off for these calls is given here.

For the compound `COc1cccnc1S(=O)(=O)/C=C/c1ncccc1Cl`, in series [1], the EC50 (in general, the midpoint of the concentration-response curve) was determined as 37 nM. In addition, the remaining at 0.5 h was found to be 94.1% in [2] and 74.4% in series [3]. Besides, the Activity entry in series [4] was “Non-Toxic”; in series [6] it was “Dose-Dependent Effect”; in [9], “Dose-Dependent Effect”; in series [11], “Dose-Dependent Effect”. Further, the outcome in series [5], in [7], in [8], in [10], in series [12] and in series [13] was Active. Moreover, the result in [14], in [15], in series [16], in [17], in series [18] and in [19] was Active.

These data come from ChEMBL document CHEMBL5370549, “Optimization and evaluation of pyridinyl vinyl sulfones as Nrf2 activator for the antioxidant and anti-inflammatory effects” (Eur J Med Chem, 2023).
